Test results: patent publication US20120035241A1, “USE OF INHIBITORS OF PLAC8 ACTIVITY FOR THE MODULATION OF ADIPOGENESIS” (SANOFI-AVENTIS, priority 2008, published 2012)

B1: shLuc: negative control siRNA sequence against luciferase, SEQ ID NO. 8 (nucleic acid)
chain: GATCCGTGCGTTGCTAGTACCAATTCAAGAGATTGGTACTAGCAACGCACTTTTTTACGCGTG
modifications: listed as DNA, chemistry not fully specified

Tests used:
[1] = test system: SCAT and VAT gene expression; test: cDNA microarray of visceral and subcutaneous adipose tissue of high fat diet fed mice treated with rimonabant; assay type: in vivo; conditions: C57BL/6J mice, 6 months HFD, then one month rimonabant 10 mg/kg/day; genes up-regulated by HFD (Plac8 and Rp9h down-regulated)
Excerpt: C57BL/6J mice, which are obesity-prone (Collins et al. 2004), were fed for 6 months with a high fat diet (HFD).
RNA from 5 different mice per group was extracted from visceral and subcutaneous adipose tissues using peqGOLD Trifast™ (peqlab) and chloroform-isoamylalcool (24:1) extraction. RNA was precipitated with isopropanol and purified by passage over RNeasy columns (Qiagen). RNA quality was checked before and after amplification with a Bioanalyzer 2100 (Agilent). RNA was reverse transcribed and RNA was amplified with MessageAmp™ kit (Ambion). A Mouse Universal Reference (Clontech) was similarly amplified and both adipose tissue and reference RNAs were labeled by an indirect technique with Cy5 and Cy3 according to published protocols (De Fourmestraux et al., 2004). Labeled RNAs were hybridized to microarrays containing 17664 cDNAs prepared at the DNA Array Facility of the University of Lausanne. Scanning, image, and quality control analyses were performed as previously published (de Fourmestraux et al., J. Biol. Chem. 2004 279:50743-53). Data were expressed as log2 intensity ratios (Cy5/Cy3), normalized with a print tip locally weighted linear regression (Lowess) method and filtered based on spot quality and incomplete annotation. All analyses were performed with the R software for statistical computing available at the Comprehensive R Archive Network (cran.us.r-project.org/).

Plac8 = test: Retroviral transduction of 3T3-L1 cells with shRNA, Plac8 mRNA by RT-PCR; assay type: cell-based, mouse; conditions: 3T3-L1 cells infected 6 hours with retroviral vectors, day 0 prior differentiation, RT-PCR (FIG. 3B)
Experimental: 3T3-L1 cells were cultured in DMEM (Gibco) with 10% FBS (Gibco) at 5% CO2. After retroviral infection (see below), cells were allow to grow to confluence in either 100-mm or 60-mm dishes in DMEM with 10% FBS. Once confluence was reached, cells were exposed to differentiation medium containing dexamethasone (1 μM), insulin (5 μg/ml), and isobutylmethylxanthine ([…]) (DMI). After 2 days cells were maintained in medium containing insulin (5 μg/ml) until ready for harvest at 7 days.
Retroviruses were constructed in the RNAi-Ready pSIREN-RetroQ ZsGreen (pSIREN Clontech) or pMSCV puromycin plasmid (pMSCV, Clontech). Viral constructs were transfected using calcium-phosphate method described in Jordan, M., et al. (2004) into 293 HEK packaging cells along with constructs encoding gag-pol and the VSV-G protein. Supernatants were harvested after 48 h in presence of […] of Trichostatin A (Sigma) and either used immediately or snap frozen and stored at −80° C. for later use. Viral supernatants were added to the cells for 6 hours in the presence of polybrene (4 μg/ml) and diluted two times with fresh medium for the next 15 hours.
Total RNA was isolated from cultured cells using peqGOLD TriFast reagent according to the manufacturer's instructions (Axonlab). First strand cDNA was synthesized from 0.5 μg of total RNA using random primers and Superscript II (Invitrogen). […]

Molecule | expression of 34 gene candidates regulated by HFD in SCAT and VAT [1] | knockdown for Plac8 (mRNA) (Plac8)
Cc1c(C(=O)NN2CCCCC2)nn(-c2ccc(Cl)cc2Cl)c1-c1ccc(Cl)cc1 [rimonabant] | normalized | –
B1 | – | no inhibition
